Results from patent publication US8513251B2, “Pyridazinone compounds” (Takeda Pharmaceutical Company Limited, priority 2009, dated 2013).

SMILES	melting point
Cc1ccc(-n2nccc2-c2nn(-c3cccc(C(F)(F)F)c3)ccc2=O)cc1 [Example 1, 3-[1-(4-Methylphenyl)-1H-pyrazol-5-yl]-1-[3-(trifluoromethyl)phenyl]pyridazin-4(1H)-one]	164 to 165 °C
O=c1ccn(-c2cccc(C(F)(F)F)c2)nc1-c1ccnn1-c1ccc(F)cc1 [Example 2, 3-[1-(4-Fluorophenyl)-1H-pyrazol-5-yl]-1-[3-(trifluoromethyl)phenyl]pyridazin-4(1H)-one]	130 to 131 °C
COc1ccc(-n2nccc2-c2nn(-c3cccc(C(F)(F)F)c3)ccc2=O)cc1 [Example 4, 3-[1-(4-Methoxyphenyl)-1H-pyrazol-5-yl]-1-[3-(trifluoromethyl)phenyl]pyridazin-4(1H)-one]	173 to 174 °C
Cc1cccc(-n2nccc2-c2nn(-c3cccc(C(F)(F)F)c3)ccc2=O)c1 [Example 5, 3-[1-(3-Methylphenyl)-1H-pyrazol-5-yl]-1-[3-(trifluoromethyl)phenyl]pyridazin-4(1H)-one]	142 to 143 °C
O=c1ccn(-c2cccc(C(F)(F)F)c2)nc1-c1ccnn1-c1cccc(F)c1 [Example 6, 3-[1-(3-Fluorophenyl)-1H-pyrazol-5-yl]-1-[3-(trifluoromethyl)phenyl]pyridazin-4(1H)-one]	104 to 105 °C
Cc1ccccc1-n1nccc1-c1nn(-c2cccc(C(F)(F)F)c2)ccc1=O [Example 7, 3-[1-(2-Methylphenyl)-1H-pyrazol-5-yl]-1-[3-(trifluoromethyl)phenyl]pyridazin-4(1H)-one]	126 to 127 °C
O=c1ccn(-c2cccc(C(F)(F)F)c2)nc1-c1ccnn1-c1ccccc1Cl [Example 8, 3-[1-(2-Chlorophenyl)-1H-pyrazol-5-yl]-1-[3-(trifluoromethyl)phenyl]pyridazin-4(1H)-one]	139 to 140 °C
COc1ccccc1-n1nccc1-c1nn(-c2cccc(C(F)(F)F)c2)ccc1=O [Example 9, 3-[1-(2-Methoxyphenyl)-1H-pyrazol-5-yl]-1-[3-(trifluoromethyl)phenyl]pyridazin-4(1H)-one]	146 to 147 °C
O=c1ccn(-c2ccc(C(F)(F)F)cc2)nc1-c1ccnn1-c1ccccc1 [Example 11, 3-(1-Phenyl-1H-pyrazol-5-yl)-1-[4-(trifluoromethyl)phenyl]pyridazin-4(1H)-one]	237 to 238 °C
O=c1ccn(-c2cccc(Cl)c2)nc1-c1ccnn1-c1ccccc1 [Example 12, 1-(3-Chlorophenyl)-3-(1-phenyl-1H-pyrazol-5-yl)pyridazin-4(1H)-one]	146 to 147 °C
COc1ccc(-n2ccc(=O)c(-c3ccnn3-c3ccccc3)n2)cc1 [Example 14, 1-(4-Methoxyphenyl)-3-(1-phenyl-1H-pyrazol-5-yl)pyridazin-4(1H)-one]	179 to 180 °C
O=c1ccn(-c2ccc(Cl)cc2)nc1-c1ccnn1-c1ccccc1 [Example 18, 1-(4-Chlorophenyl)-3-(1-phenyl-1H-pyrazol-5-yl)pyridazin-4(1H)-one]	219 to 220 °C
Cc1ccccc1-n1ccc(=O)c(-c2ccnn2-c2ccccc2)n1 [Example 19, 1-(2-Methylphenyl)-3-(1-phenyl-1H-pyrazol-5-yl)pyridazin-4(1H)-one]	120 to 121 °C
Cc1cccc(-n2ccc(=O)c(-c3ccnn3-c3ccccc3)n2)c1 [Example 20, 1-(3-Methylphenyl)-3-(1-phenyl-1H-pyrazol-5-yl)pyridazin-4(1H)-one]	115 to 116 °C
COc1cccc(-n2ccc(=O)c(-c3ccnn3-c3ccccc3)n2)c1 [Example 21, 1-(3-Methoxyphenyl)-3-(1-phenyl-1H-pyrazol-5-yl)pyridazin-4(1H)-one]	110 to 111 °C
O=c1ccn(-c2ccccc2C(F)(F)F)nc1-c1ccnn1-c1ccccc1 [Example 22, 3-(1-Phenyl-1H-pyrazol-5-yl)-1-[2-(trifluoromethyl)phenyl]pyridazin-4(1H)-one]	145 to 146 °C
O=c1ccn(-c2ccccc2)nc1-c1ccnn1-c1ccccc1 [Example 24, 1-Phenyl-3-(1-phenyl-1H-pyrazol-5-yl)pyridazin-4(1H)-one]	179 to 180 °C
Cc1ccc(-n2ccc(=O)c(-c3ccnn3-c3ccccc3)n2)cc1 [Example 25, 1-(4-Methylphenyl)-3-(1-phenyl-1H-pyrazol-5-yl)pyridazin-4(1H)-one]	182 to 183 °C
O=c1ccn(-c2cccc(OC(F)F)c2)nc1-c1ccnn1-c1ccccc1 [Example 27, 1-[3-(Difluoromethoxy)phenyl]-3-(1-phenyl-1H-pyrazol-5-yl)pyridazin-4(1H)-one]	159 to 160 °C
O=c1ccn(-c2ccc(OC(F)F)cc2)nc1-c1ccnn1-c1ccccc1 [Example 28, 1-[4-(Difluoromethoxy)phenyl]-3-(1-phenyl-1H-pyrazol-5-yl)pyridazin-4(1H)-one]	175 to 176 °C
O=c1ccn(-c2ccccc2N2CCOCC2)nc1-c1ccnn1-c1ccccc1 [Example 29, 1-(2-Morpholin-4-ylphenyl)-3-(1-phenyl-1H-pyrazol-5-yl)pyridazin-4(1H)-one]	200 to 201 °C
O=c1ccn(-c2cccc(C(F)(F)F)c2)nc1-c1nncn1-c1ccccc1 [Example 40, 3-(4-Phenyl-4H-1,2,4-triazol-3-yl)-1-[3-(trifluoromethyl)phenyl]pyridazin-4(1H)-one]	103 to 104 °C
Cc1nnc(-c2nn(-c3cccc(C(F)(F)F)c3)ccc2=O)n1-c1ccccc1 [Example 41, 3-(5-Methyl-4-phenyl-4H-1,2,4-triazol-3-yl)-1-[3-(trifluoromethyl)phenyl]pyridazin-4(1H)-one]	191 to 192 °C
Cc1cn(-c2cccc(C(F)(F)F)c2)nc(-c2ccnn2-c2ccccc2)c1=O [Example 50, 5-Methyl-3-(1-phenyl-1H-pyrazol-5-yl)-1-[3-(trifluoromethyl)phenyl]pyridazin-4(1H)-one]	147 to 150 °C
Cc1cc(-c2nn(-c3cccc(C(F)(F)F)c3)ccc2=O)n(-c2ccccc2)n1 [Example 51, 3-(3-Methyl-1-phenyl-1H-pyrazol-5-yl)-1-[3-(trifluoromethyl)phenyl]pyridazin-4(1H)-one]	167 to 168 °C
COc1cn(-c2ccc(I)cc2F)nc(-c2ccnn2-c2ccccc2)c1=O [Example 55, 1-(2-Fluoro-4-iodophenyl)-5-methoxy-3-(1-phenyl-1H-pyrazol-5-yl)pyridazin-4(1H)-one]	194 to 196 °C

The next lines start with the values.

melting point	SMILES
169 to 171 °C	COc1cn(-c2ccc(C(F)(F)F)cc2F)nc(-c2ccnn2-c2ccccc2)c1=O [Example 56, 1-[2-Fluoro-4-(trifluoromethyl)phenyl]-5-methoxy-3-(1-phenyl-1H-pyrazol-5-yl)pyridazin-4(1H)-one]
246 to 248 °C	O=c1c(O)cn(-c2cccc(C(F)(F)F)c2)nc1-c1ccnn1-c1ccccc1 [Example 58, 5-Hydroxy-3-(1-phenyl-1H-pyrazol-5-yl)-1-[3-(trifluoromethyl)phenyl]pyridazin-4(1H)-one]
137 to 139 °C	CC(C)Oc1cn(-c2cccc(C(F)(F)F)c2)nc(-c2ccnn2-c2ccccc2)c1=O [Example 60, 5-(1-Methylethoxy)-3-(1-phenyl-1H-pyrazol-5-yl)-1-[3-(trifluoromethyl)phenyl]pyridazin-4(1H)-one]
72 to 78 °C	O=c1c(OCC2CC2)cn(-c2cccc(C(F)(F)F)c2)nc1-c1ccnn1-c1ccccc1 [Example 61, 5-(Cyclopropylmethoxy)-3-(1-phenyl-1H-pyrazol-5-yl)-1-[3-(trifluoromethyl)phenyl]pyridazin-4(1H)-one]
137 to 139 °C	COCc1cn(-c2cccc(C(F)(F)F)c2)nc(-c2ccnn2-c2ccccc2)c1=O [Example 66, 5-(Methoxymethyl)-3-(1-phenyl-1H-Pyrazol-5-yl)-1-[3-(trifluoromethyl)phenyl]pyridazin-4(1H)-one]
145 to 146 °C	O=c1c(Br)cn(-c2cccc(C(F)(F)F)c2)nc1-c1ccnn1-c1ccccc1 [Example 67, 5-Bromo-3-(1-phenyl-1H-pyrazol-5-yl)-1-[3-(trifluoromethyl)phenyl]pyridazin-4(1H)-one]
181 to 183 °C	COc1cn(-c2ccc(OCc3ccccc3)cc2F)nc(-c2ccnn2-c2ccccc2)c1=O [Example 68, 1-[4-(Benzyloxy)-2-fluorophenyl]-5-methoxy-3-(1-phenyl-1H-pyrazol-5-yl)pyridazin-4(1H)-one]
241 to 243 °C	O=c1cc(O)n(-c2cccc(C(F)(F)F)c2)nc1-c1ccnn1-c1ccccc1 [Example 69, 6-Hydroxy-3-(1-phenyl-1H-pyrazol-5-yl)-1-[3-(trifluoromethyl)phenyl]pyridazin-4(1H)-one]
190 to 191 °C	O=c1ccn(-c2cccc(C(F)(F)F)c2)nc1-c1cc(C(F)(F)F)nn1-c1ccccc1 [Example 70, 3-[1-Phenyl-3-(trifluoromethyl)-1H-pyrazol-5-yl]-1-[3-(trifluoromethyl)phenyl]pyridazin-4(1H)-one]
208 to 211 °C	Cc1cnn(-c2ccccc2)c1-c1nn(-c2cccc(C(F)(F)F)c2)ccc1=O [Example 71, 3-(4-Methyl-1-phenyl-1H-pyrazol-5-yl)-1-[3-(trifluoromethyl)phenyl]pyridazin-4(1H)-one]
216 to 218 °C	O=c1ccn(-c2cccc(C(F)(F)F)c2)nc1-c1cn(C(c2ccccc2)(c2ccccc2)c2ccccc2)nc1-c1ccccc1 [Example 73, 3-(3-Phenyl-1-trityl-1H-pyrazol-4-yl)-1-[3-(trifluoromethyl)phenyl]pyridazin-4(1H)-one]
206 to 208 °C	O=c1ccn(-c2cccc(C(F)(F)F)c2)nc1-c1c[nH]nc1-c1ccccc1 [Example 74, 3-(3-Phenyl-1H-pyrazol-4-yl)-1-[3-(trifluoromethyl)phenyl]pyridazin-4(1H)-one]
193 to 195 °C	Cn1ncc(-c2nn(-c3cccc(C(F)(F)F)c3)ccc2=O)c1-c1ccccc1 [Example 75, 3-(1-Methyl-5-phenyl-1H-pyrazol-4-yl)-1-[3-(trifluoromethyl)phenyl]pyridazin-4(1H)-one]
